# Values of other authors in US20050009922A1, “Stable aqueous antimicrobial suspension” (priority 2001, published 2005).
# Details: in water, 25° C., FIG. 1
compound,measurement,value
"N#CC(Br)(Br)C(N)=O [DBNPA, 2,2 dibromo 3-nitrilopropionamide]",pH of lowest rate of hydrolysis,< 4 pH
